The supplement of paper PMC11451515

Columns and labels:
Settings in all cases: 48 h
P12-Ichikawa [1] = assay: cell viability relative to DMSO control; higher = less cytotoxic
Summary of the method: (§1)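 NOMO1 or SEM (500 cells/well) or P12-Ichikawa (1000 cells/well) leukemia cells were adapted for at least four passages in each medium. They were seeded in 1536-well plates (5 μl) and pin-dosed with library compounds in DMSO over an 11-point threefold series, 47 μM to 0.79 nM. CellTiter-Glo One luminescence was read after 48 h at 37°C. Viability is the per-plate percentage relative to DMSO wells, with cell-free wells as background.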

NOMO1 [2] = assay: as above
Summary of the method: as §1

SEM cells [3] = assay: as above
Summary of the method: as §1

P12-Ichikawa [4] = assay: AUC of viability dose-response curve (% viability x log10 dose units); higher = less sensitive
Summary of the method: (§2)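 In 1536-well plates, leukemia cells adapted to each medium (500 or 1000 cells/well) were exposed for 48 h at 37°C to library compounds in DMSO across 11 threefold doses, 47 μM down to 0.79 nM. Viability was read by CellTiter-Glo One luminescence and normalised per plate to DMSO and cell-free wells. A four-parameter log-logistic fit over log10 doses was integrated by trapezoidal rule. This yielded the area under the curve, with over-full-viability curves scaled and quality-control failures dropped.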

NOMO1 [5] = assay: as above
Summary of the method: as §2

SEM cells [6] = assay: as above
Summary of the method: as §2

[7] = HPLM + 10% dialyzed FBS, 0.000781 µM
[8] = HPLM + 10% dialyzed FBS, 0.00234 µM
[9] = HPLM + 10% dialyzed FBS, 0.00702 µM
[10] = HPLM + 10% dialyzed FBS, 0.0211 µM
[11] = HPLM + 10% dialyzed FBS, 0.0632 µM
[12] = HPLM + 10% dialyzed FBS, 0.19 µM
[13] = HPLM + 10% dialyzed FBS, 0.569 µM
[14] = HPLM + 10% dialyzed FBS, 1.71 µM
[15] = HPLM + 10% dialyzed FBS, 5.12 µM
[16] = HPLM + 10% dialyzed FBS, 15.4 µM
[17] = HPLM + 10% dialyzed FBS, 46.1 µM
[18] = RPMI 5 mM glucose + 10% FBS, 0.000781 µM
[19] = RPMI 5 mM glucose + 10% FBS, 0.00234 µM
[20] = RPMI 5 mM glucose + 10% FBS, 0.00702 µM
[21] = RPMI 5 mM glucose + 10% FBS, 0.0211 µM
[22] = RPMI 5 mM glucose + 10% FBS, 0.0632 µM
[23] = RPMI 5 mM glucose + 10% FBS, 0.19 µM
[24] = RPMI 5 mM glucose + 10% FBS, 0.569 µM
[25] = RPMI 5 mM glucose + 10% FBS, 1.71 µM
[26] = RPMI 5 mM glucose + 10% FBS, 5.12 µM
[27] = RPMI 5 mM glucose + 10% FBS, 15.4 µM
[28] = RPMI 5 mM glucose + 10% FBS, 46.1 µM
[29] = RPMI 5 mM glucose + 10% dialyzed FBS, 0.000781 µM
[30] = RPMI 5 mM glucose + 10% dialyzed FBS, 0.00234 µM
[31] = RPMI 5 mM glucose + 10% dialyzed FBS, 0.00702 µM
[32] = RPMI 5 mM glucose + 10% dialyzed FBS, 0.0211 µM
[33] = RPMI 5 mM glucose + 10% dialyzed FBS, 0.0632 µM
[34] = RPMI 5 mM glucose + 10% dialyzed FBS, 0.19 µM
[35] = RPMI 5 mM glucose + 10% dialyzed FBS, 0.569 µM
[36] = RPMI 5 mM glucose + 10% dialyzed FBS, 1.71 µM
[37] = RPMI 5 mM glucose + 10% dialyzed FBS, 5.12 µM
[38] = RPMI 5 mM glucose + 10% dialyzed FBS, 15.4 µM
[39] = RPMI 5 mM glucose + 10% dialyzed FBS, 46.1 µM
[40] = RPMI 5 mM glucose + 10% dialyzed FBS

## CCOC(=O)N1CCN(/[N+]([O-])=N/Oc2ccc([N+](=O)[O-])cc2[N+](=O)[O-])CC1
P12-Ichikawa [1]; [7]
  cell viability: 93.7%
P12-Ichikawa [1]; [8]
  cell viability: 94.7%
P12-Ichikawa [1]; [9]
  cell viability: 96%
P12-Ichikawa [1]; [10]
  cell viability: 97.1%
P12-Ichikawa [1]; [11]
  cell viability: 98.2%
P12-Ichikawa [1]; [12]
  cell viability: 102%
P12-Ichikawa [1]; [13]
  cell viability: 101%
P12-Ichikawa [1]; [14]
  cell viability: 97%
P12-Ichikawa [1]; [15]
  cell viability: 95.5%
P12-Ichikawa [1]; [16]
  cell viability: 96.9%
P12-Ichikawa [1]; [17]
  cell viability: 27.1%
P12-Ichikawa [1]; [18]
  cell viability: 91.6%
P12-Ichikawa [1]; [19]
  cell viability: 96.5%
P12-Ichikawa [1]; [20]
  cell viability: 88%
P12-Ichikawa [1]; [21]
  cell viability: 90.6%
P12-Ichikawa [1]; [22]
  cell viability: 102%
P12-Ichikawa [1]; [23]
  cell viability: 99.2%
P12-Ichikawa [1]; [24]
  cell viability: 99.8%
P12-Ichikawa [1]; [25]
  cell viability: 97.1%
P12-Ichikawa [1]; [26]
  cell viability: 84.3%
P12-Ichikawa [1]; [27]
  cell viability: 78.7%
P12-Ichikawa [1]; [28]
  cell viability: 19.9%
P12-Ichikawa [1]; [29]
  cell viability: 92%
P12-Ichikawa [1]; [30]
  cell viability: 83.9%
P12-Ichikawa [1]; [31]
  cell viability: 87.7%
P12-Ichikawa [1]; [32]
  cell viability: 88.3%
P12-Ichikawa [1]; [33]
  cell viability: 88.4%
P12-Ichikawa [1]; [34]
  cell viability: 86.4%
P12-Ichikawa [1]; [35]
  cell viability: 90.1%
P12-Ichikawa [1]; [36]
  cell viability: 85.9%
P12-Ichikawa [1]; [37]
  cell viability: 82.8%
P12-Ichikawa [1]; [38]
  cell viability: 82.8%
P12-Ichikawa [1]; [39]
  cell viability: 18.8%
NOMO1 [2]; [7]
  cell viability: 85.1%
NOMO1 [2]; [8]
  cell viability: 102%
NOMO1 [2]; [9]
  cell viability: 102%
NOMO1 [2]; [10]
  cell viability: 106%
NOMO1 [2]; [11]
  cell viability: 117%
NOMO1 [2]; [12]
  cell viability: 101%
NOMO1 [2]; [13]
  cell viability: 109%
NOMO1 [2]; [14]
  cell viability: 110%
NOMO1 [2]; [15]
  cell viability: 97.1%
NOMO1 [2]; [16]
  cell viability: 98.5%
NOMO1 [2]; [17]
  cell viability: 50.8%
NOMO1 [2]; [18]
  cell viability: 80%
NOMO1 [2]; [19]
  cell viability: 100%
NOMO1 [2]; [20]
  cell viability: 89.3%
NOMO1 [2]; [21]
  cell viability: 94.7%
NOMO1 [2]; [22]
  cell viability: 89.2%
NOMO1 [2]; [23]
  cell viability: 92.9%
NOMO1 [2]; [24]
  cell viability: 94.1%
NOMO1 [2]; [25]
  cell viability: 98.5%
NOMO1 [2]; [26]
  cell viability: 102%
NOMO1 [2]; [27]
  cell viability: 87%
NOMO1 [2]; [28]
  cell viability: 38.5%
NOMO1 [2]; [29]
  cell viability: 82.1%
NOMO1 [2]; [30]
  cell viability: 87.5%
NOMO1 [2]; [31]
  cell viability: 80.1%
NOMO1 [2]; [32]
  cell viability: 86.8%
NOMO1 [2]; [33]
  cell viability: 99.7%
NOMO1 [2]; [34]
  cell viability: 96.6%
NOMO1 [2]; [35]
  cell viability: 86.7%
NOMO1 [2]; [36]
  cell viability: 89.5%
NOMO1 [2]; [37]
  cell viability: 89.2%
NOMO1 [2]; [38]
  cell viability: 89.6%
NOMO1 [2]; [39]
  cell viability: 41.9%
SEM cells [3]; [7]
  cell viability: 64.4%
SEM cells [3]; [8]
  cell viability: 70.7%
SEM cells [3]; [9]
  cell viability: 60.1%
SEM cells [3]; [10]
  cell viability: 77.6%
SEM cells [3]; [11]
  cell viability: 76%
SEM cells [3]; [12]
  cell viability: 94.4%
SEM cells [3]; [13]
  cell viability: 85.7%
SEM cells [3]; [14]
  cell viability: 73.8%
SEM cells [3]; [15]
  cell viability: 42.5%
SEM cells [3]; [16]
  cell viability: 22.4%
SEM cells [3]; [17]
  cell viability: 14%
SEM cells [3]; [18]
  cell viability: 70.6%
SEM cells [3]; [19]
  cell viability: 84.9%
SEM cells [3]; [20]
  cell viability: 56.8%
SEM cells [3]; [21]
  cell viability: 91.9%
SEM cells [3]; [22]
  cell viability: 93.9%
SEM cells [3]; [23]
  cell viability: 94.9%
SEM cells [3]; [24]
  cell viability: 88.8%
SEM cells [3]; [25]
  cell viability: 81.5%
SEM cells [3]; [26]
  cell viability: 40.7%
SEM cells [3]; [27]
  cell viability: 13.2%
SEM cells [3]; [28]
  cell viability: 8.13%
SEM cells [3]; [29]
  cell viability: 77.3%
SEM cells [3]; [30]
  cell viability: 91.6%
SEM cells [3]; [31]
  cell viability: 72.5%
SEM cells [3]; [32]
  cell viability: 88.2%
SEM cells [3]; [33]
  cell viability: 89%
SEM cells [3]; [34]
  cell viability: 86.2%
SEM cells [3]; [35]
  cell viability: 102%
SEM cells [3]; [36]
  cell viability: 78.2%
SEM cells [3]; [37]
  cell viability: 43.6%
SEM cells [3]; [38]
  cell viability: 16.7%
SEM cells [3]; [39]
  cell viability: 8.98%
P12-Ichikawa [4]; HPLM + 10% dialyzed FBS
  AUC of viability dose-response curve: 447
P12-Ichikawa [4]; RPMI 5 mM glucose + 10% FBS
  AUC of viability dose-response curve: 425
P12-Ichikawa [4]; [40]
  AUC of viability dose-response curve: 398
NOMO1 [5]; HPLM + 10% dialyzed FBS
  AUC of viability dose-response curve: 462
NOMO1 [5]; RPMI 5 mM glucose + 10% FBS
  AUC of viability dose-response curve: 429
NOMO1 [5]; [40]
  AUC of viability dose-response curve: 412
SEM cells [6]; HPLM + 10% dialyzed FBS
  AUC of viability dose-response curve: 303
SEM cells [6]; RPMI 5 mM glucose + 10% FBS
  AUC of viability dose-response curve: 324
SEM cells [6]; [40]
  AUC of viability dose-response curve: 337
